Counter-ions that a name gives are not always drawn. Like-named read-outs stand apart in the source and are kept apart here.

This note sets out measurements from EP1075467B1, “PYRAZOLE DERIVATIVES AS P-38 MAP KINASE INHIBITORS” (F. Hoffmann-La Roche AG, priority 1998, dated 1999).

One assay has as its system TNF-α Production In Rats. The experiment in a line: Inhibition of LPS-induced TNF-α production in rats, in vivo assay. Details: species or system Female Sprague-Dawley rats. The note with it: dosed orally at 30 mg, LPS 50 µg/kg intraperitoneally after 30 min, serum TNF-α 1.5 h later by ELISA. As for the experimental part:
Female Sprague-Dawley rats weighing 110-140 grams (Charles River, Hollister, CA) were acclimated for one week. Groups containing 8 […] each were dosed orally either with the test compounds dissolved in an aqueous vehicle containing 0.9% sodium chloride, 0.5% sodium carboxymethyl-cellulose, 0.4% polysorbate 80, 0.9% benzyl alcohol (CMC vehicle) or only vehicle (control group). After 30 min., the […] were injected intraperitoneally with 50 µg/kg of LPS (Sigma, St. Louis, MO).
(An ELISA detects its analyte on a solid surface through an enzyme-linked reagent.)

The subject of assay [1] is TNF-α Production In THP1 Cells. Briefly: Inhibition of LPS-induced TNF-α production in THP1 cells, in vitro assay. The format is cell-based, human. The following applies: THP-1 cells, LPS 0.5 µg/ml, 2 h, TNF-α in supernatant by ELISA, read-out: IC50 (concentration corresponding to half-maximal reduction in 450 nm absorbance), TNF-α release. As for the experimental part: The ability of the compounds of this invention to inhibit the TNF-α release was determined using a minor modification of the methods described in Blifeld, C. et al. Transplantation, Vol. 51(2), 498-503, (1991). THP-1 cells were suspended in culture medium [RPMI (Gibco-BRL, Gailthersburg, MD) containing 15% fetal bovine serum, 0.02 mM 2-mercaptoethanol], at a concentration of 2.5 x 10^6 cells/ml and then plated in 96 well plate (0.2 ml aliquots in each well). Test compounds were dissolved in DMSO and then diluted with the culture medium such that the final DMSO concentration was 5%. 20 μl aliquots of test solution or only medium with DMSO (control) were added to each well. The cells were incubated for 30 min., at 37 °C. LPS (Sigma, St. Louis, MO) was added to the wells at a final concentration of 0.5 μg/ml, and cells were incubated for an additional 2 h. At the end of the incubation period, culture supernatants were collected and the amount of TNF-α present was determined using an ELISA assay as described below. The amount of human TNF-α present was determined by a specific trapping ELISA assay using two anti-TNF-α antibodies (2TNF-H22 and 2TNF-[…]) described in Reimund, J. M., et al. GUT. Vol. 39(5), 684-689 (1996). Polystyrene 96-well plates were coated with 50 μl per well of antibody 2TNF-H22 in PBS (10 μg/ml) and incubated in a humidified chamber at 4 °C overnight. The plates were washed with PBS and then blocked with 5% nonfat-dry milk in PBS for 1 hour at room temperature and washed with 0.1% BSA (bovine serum albumin) in PBS. TNF standards were prepared from a stock solution of human recombinant TNF-α (R&D Systems, Minneapolis, MN). The concentration of the standards in the assay began at 10 ng/ml followed by 6 half log serial dilution's. […] Optical density of the sample and the reference were read at 450 nm and 650 nm, respectively. TNF-α levels were determined from a graph relating the optical density at 450 nm to the concentration used. The IC50 value was defined as the concentration of the test compound corresponding to half-maximal reduction in 450 nm absorbance. […]

Turning to `Nc1c(C(=O)c2cccc(C#CCN3CCOCC3)c2)cnn1-c1ccc(F)cc1` [compound 3, 5-Amino-1-(4-fluorophenyl)-4-[3-{3-(morpholin-4-yl)prop-1-ynyl}benzoyl]pyrazole], the “% Inhibition (TNF-α content in the test group relative to the vehicle treated group)” value with TNF-α Production In Rats worked out at 96%.

With `Nc1c(C(=O)c2cccc(CCCN3CCOCC3)c2)cnn1-c1ccc(F)cc1` [compound 6, 5-Amino-1-(4-fluorophenyl)-4-[3-(3-morpholin-4-ylpropyl)benzoyl]pyrazole hydrochloride], the IC50 in assay [1] (Homo sapiens) was determined as 1040 nM.

Turning to `CNC(=O)COc1cccc(C(=O)c2cnn(-c3ccc(F)cc3)c2N)c1` [compound 34, 5-Amino-1-(4-fluorophenyl)-4-[3-(methylaminocarbonylmethyloxy)-benzoyl]pyrazole], the “% Inhibition (TNF-α content in the test group relative to the vehicle treated group)” value in the assay on TNF-α Production In Rats was determined as 75%.

Regarding `CN1CCN(C(=O)COc2cccc(C(=O)c3cnn(-c4ccc(F)cc4)c3N)c2)CC1` [compound 38], the IC50 in assay [1] is 690 nM.

`Nc1c(C(=O)c2cccc(CCS(N)(=O)=O)c2)cnn1-c1ccc(F)cc1` [compound 50, 5-Amino-4-[3-(2-aminosulfonylethyl)benzoyl]-1-(4-fluorophenyl)pyrazole]: the IC50 in assay [1] (Homo sapiens) was 510 nM.
